In ChEMBL document CHEMBL1201862, “PubChem BioAssay data set” (2004):
Where a name gives a salt, the structure may show the parent alone.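 Grown in 96-well plates, cells were treated for 48 hours with each compound at five concentrations. Insufficient inhibition: endpoint recorded as highest concentration tested. The concentration for 50% growth inhibition is given as GI50.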 The source made the active and inactive calls. Rule as the data show it: active = GI50 up to about 1.1 µM and inactive = higher.

Columns and labels:
Test in all cases: NCI anticancer screen, dose series, 48 h
KM-20L2 = tested on: KM-20L2
LXFL 529 = tested on: LXFL 529
HOP-18 = tested on: HOP-18
M19-MEL = tested on: M19-MEL
DLD-1 = tested on: DLD-1
DMS-273 = tested on: DMS-273
SNB-78 = tested on: SNB-78
DMS-114 = tested on: DMS-114
XF498 = tested on: XF498

| SMILES | GI50 (KM-20L2) | GI50 (LXFL 529) | GI50 (HOP-18) | GI50 (M19-MEL) | GI50 (DLD-1) | GI50 (DMS-273) | GI50 (SNB-78) | GI50 (DMS-114) | GI50 (XF498) |
| --- | --- | --- | --- | --- | --- | --- | --- | --- | --- |
| C=C(C)C1CC2C(C)=C(OC(C)=O)C1n1c(=O)c3cc4ccccc4cc3c(=O)n12 (stereo not given) | > 93.5 µM (inactive) | 69.7 µM (inactive) | > 100 µM (inactive) | 74 µM (inactive) | 53.1 µM (inactive) | 54.2 µM (inactive) | 95.9 µM (inactive) | 65.8 µM (inactive) | – |
| NCCSSCCN [CYSTAMINE HYDROCHLORIDE] | > 100 µM (inactive) | > 100 µM (inactive) | > 100 µM (inactive) | > 100 µM (inactive) | > 100 µM (inactive) | > 100 µM (inactive) | > 100 µM (inactive) | > 100 µM (inactive) | > 100 µM (inactive) |
| O=C1C2Cc3ccccc3CN2C(=O)N1CCN1CCCC1 (stereo not given) | > 100 µM (inactive) | > 100 µM (inactive) | – | > 100 µM (inactive) | > 100 µM (inactive) | > 100 µM (inactive) | – | > 100 µM (inactive) | > 100 µM (inactive) |
| COc1cc(/C=C/C(=N\NC(=O)c2ccccc2)c2sc(Nc3ccc(Cl)c(Cl)c3)nc2C)ccc1O | 33.4 µM (inactive) | 31.6 µM (inactive) | 24.1 µM (inactive) | 28.2 µM (inactive) | 28.7 µM (inactive) | – | 29.3 µM (inactive) | 23.8 µM (inactive) | 32.9 µM (inactive) |
| C=CCCC(O)c1cc(C)c(O)c(C)c1 (stereo not given) | > 100 µM (inactive) | > 100 µM (inactive) | > 100 µM (inactive) | > 100 µM (inactive) | – | – | > 100 µM (inactive) | > 100 µM (inactive) | – |
| CC1(C)NC(=O)N(CCCCCCN2C(=O)NC(C)(C)C2=O)C1=O | > 100 µM (inactive) | > 100 µM (inactive) | > 100 µM (inactive) | > 100 µM (inactive) | > 100 µM (inactive) | > 100 µM (inactive) | > 100 µM (inactive) | > 100 µM (inactive) | – |
| O=C1CCC(O)=C1O | > 100 µM (inactive) | > 100 µM (inactive) | > 100 µM (inactive) | > 100 µM (inactive) | > 100 µM (inactive) | > 100 µM (inactive) | – | > 100 µM (inactive) | > 100 µM (inactive) |
| Cc1nnc(N/N=C(/C(=O)C(C#N)c2ccc(Cl)cc2)C(C#N)c2ccc(Cl)cc2)n1N (stereo not given) | 20.3 µM (inactive) | 13.4 µM (inactive) | 16.4 µM (inactive) | – | 20.1 µM (inactive) | 19 µM (inactive) | 24.1 µM (inactive) | 15.7 µM (inactive) | 28.8 µM (inactive) |
| CSc1nc(C)cc(=O)n1C1OC(COC(C)=O)C(OC(C)=O)C(OC(C)=O)C1OC(C)=O (stereo not given) | > 100 µM (inactive) | > 100 µM (inactive) | – | > 100 µM (inactive) | > 100 µM (inactive) | > 100 µM (inactive) | – | > 100 µM (inactive) | > 100 µM (inactive) |
| CN1/C(=N\c2ccccc2)S/C1=N/c1ccccc1 | – | 82.2 µM (inactive) | 69 µM (inactive) | 21.8 µM (inactive) | 23.4 µM (inactive) | 87.3 µM (inactive) | > 100 µM (inactive) | 23.6 µM (inactive) | 9.57 µM (inactive) |
| COc1ccc(/C=C/CO)cc1OC | > 100 µM (inactive) | > 100 µM (inactive) | – | > 100 µM (inactive) | – | > 100 µM (inactive) | > 100 µM (inactive) | > 100 µM (inactive) | – |
| CCCCCCCCCC1CC(=O)Oc2cccc(O)c21 (stereo not given) | 31.3 µM (inactive) | 24.4 µM (inactive) | 51.4 µM (inactive) | 31.3 µM (inactive) | 27.9 µM (inactive) | 4.03 µM (inactive) | 42 µM (inactive) | 15.7 µM (inactive) | 21.6 µM (inactive) |
| O=C(CO)CC(=O)C(=O)Nc1ccccc1 | > 100 µM (inactive) | > 100 µM (inactive) | > 100 µM (inactive) | > 100 µM (inactive) | > 100 µM (inactive) | > 100 µM (inactive) | > 100 µM (inactive) | > 100 µM (inactive) | – |
| CCCCCCCCCCCCCCCC(=O)OCC1OC(n2cc(F)c(=O)[nH]c2=O)C(NC(=O)OCc2ccccc2)C(O)C1O (stereo not given) | 22.3 µM (inactive) | 16.7 µM (inactive) | 16.8 µM (inactive) | 20.3 µM (inactive) | – | 16.8 µM (inactive) | 20.6 µM (inactive) | 14 µM (inactive) | 16.3 µM (inactive) |
| C=C1C2C[C@@H]3OC4CC5O[C@]6(CC5OC4C(C)C3OC(=O)CC3CC[C@@H]4OC5C7OC8C[C@](CCC9CC(=C)[C@H](CCC(C[C@H]1C)O2)O9)(OC7C4O3)O[C@@H]85)C[C@@H]1O[C@@]2(CC(C)[C@@H]3OC(CC(=O)CCO)C(O)C[C@@H]3O2)CC(C)[C@@H]1O6 (stereo not given in full) | < 0.001 µM (active) | < 0.001 µM (active) | – | – | < 0.001 µM (active) | < 0.001 µM (active) | 0.00157 µM (active) | – | < 0.001 µM (active) |
| Cc1n(-c2ccccc2)c2c([n+]1Cc1ccc([N+](=O)[O-])cc1)C(=O)c1ccccc1C2=O | 3.23 µM (inactive) | 1.42 µM (inactive) | 7.19 µM (inactive) | 1.16 µM (inactive) | 5.43 µM (inactive) | 1.92 µM (inactive) | 2.88 µM (inactive) | 0.386 µM (active) | – |
| COc1ccc(C[P+]2(c3ccccc3)CCCCC2)cc1.O=[N+]([O-])c1ccc(C[P+]2(c3ccccc3)CCCCC2)cc1.[O-][Cl+3]([O-])([O-])[O-].[O-][Cl+3]([O-])([O-])[O-] | – | 16.4 µM (inactive) | 15.4 µM (inactive) | – | > 100 µM (inactive) | 60 µM (inactive) | – | 36.1 µM (inactive) | > 100 µM (inactive) |
| O=C(CCC(=O)Nc1ccc(Cl)c(Cl)c1)CC(=O)c1ccc(F)cc1 | > 100 µM (inactive) | > 100 µM (inactive) | > 100 µM (inactive) | > 100 µM (inactive) | > 100 µM (inactive) | > 100 µM (inactive) | > 100 µM (inactive) | > 100 µM (inactive) | – |
| C[C@]12CC=CC(=O)[C@@]1(C)CCC(=O)C2 | – | > 100 µM (inactive) | – | > 100 µM (inactive) | > 100 µM (inactive) | > 100 µM (inactive) | > 100 µM (inactive) | > 100 µM (inactive) | 75.7 µM (inactive) |
| O=c1/c(=C/c2ccc3c(c2)OCO3)sc2nnc(-c3ccco3)n12 | > 100 µM (inactive) | > 100 µM (inactive) | > 100 µM (inactive) | > 100 µM (inactive) | > 100 µM (inactive) | > 100 µM (inactive) | > 100 µM (inactive) | > 100 µM (inactive) | > 100 µM (inactive) |
| NCCOCCOCC(=O)O | > 100 µM (inactive) | > 100 µM (inactive) | – | > 100 µM (inactive) | – | > 100 µM (inactive) | > 100 µM (inactive) | > 100 µM (inactive) | – |
| Brc1ccc(-c2nnc(-c3nn(-c4ccccc4)c4nc5ccccc5nc34)o2)cc1 | > 100 µM (inactive) | 31.5 µM (inactive) | > 100 µM (inactive) | – | > 100 µM (inactive) | 81.3 µM (inactive) | > 100 µM (inactive) | 26.7 µM (inactive) | – |
